Source: patent publication US11053258B2, “Pyrimidine carboxamides as GSK-3 inhibitors” (BRISTOL-MYERS SQUIBB COMPANY, priority 2016, dated 2021)
Where “and” joins values, the source holds several entries; their conditions need not be identical. Equal entries are not always repeated.

Assays:
[1] = from C=CCN1CCN(c2cc(F)ncc2NC(=O)c2ccnc(NCC(C)(O)CC=C)n2)CC1; rcm bond; 18-membered ring; Zhan 1B; ClCH2CH2Cl; 4.5 mM; 70.0 °C; 1.5 h
[2] = tested on: pTau; test: pTau assay; type: cell-based
[3] = biological target: GSK3α (Homo sapiens, UniProt P49840); test: GSK3α kinase assay (Caliper LabChip3000, fluoresceinated peptide substrate); type: biochemical; details: second value of cell; 250 pM enzyme, 20 uM ATP, 20 hours room temperature; read-out: GSK3β/α (nM): GSK3α IC50
Description: (§1) The kinase assay was performed in V-bottom 384-well plates. The final assay volume was 30 μl prepared from 15 μl additions of enzyme, substrates (fluoresceinated peptide FL-KRREILSRRP[ps]ERYR-NH2 and ATP) and test compounds in assay buffer (100 mM HEPES pH 7.4, 10 mM MgCl2, 25 mM Beta-Glycerolphosphate, 0.015% Brij35 and 0.25 mM DTT). The reaction was incubated at room temperature for 20 hours and terminated by adding 45 μl of 35 mM EDTA to each sample. The reaction mixture was analyzed on the Caliper LabChip3000 (Caliper, Hopkinton, Mass.) by electrophoretic separation of the unphosphorylated substrate and phosphorylated product. Inhibition data were calculated by comparison of the no enzyme control reactions for 100% inhibition and vehicle-only reactions for 0% inhibition. The final concentration of reagents in the assay were 250 pM GSK3α or GSK3β, 20 uM ATP, 1.5 uM FL-KRREILSRRP[ps]ERYR-NH2, and 1.6% DMSO. Dose response curves were generated to determine the concentration required to inhibit 50% of the kinase activity (IC50). Compounds were dissolved at 10 mM in dimethylsulfoxide (DMSO) and evaluated at eleven concentrations. IC50 values were derived by non-linear regression analysis.

[4] = biological target: GSK3β (Homo sapiens, UniProt P49841); test: GSK3β kinase assay (Caliper LabChip3000, fluoresceinated peptide substrate); type: biochemical; details: first value of cell; 250 pM enzyme, 20 uM ATP, 20 hours room temperature; read-out: GSK3β/α (nM): GSK3β IC50
Description: as §1

[5] = from C=CCCC(O)CNc1nccc(C(=O)Nc2cnc(F)cc2N2CCN(CC=C)CC2)n1; rcm bond; 19-membered ring; Zhan 1B (30 mol%); ClCH2CH2Cl; 5.17 mM; 70.0 °C; 3.0 h

GSK3α, sequence (P49840 whole entry, species assumed): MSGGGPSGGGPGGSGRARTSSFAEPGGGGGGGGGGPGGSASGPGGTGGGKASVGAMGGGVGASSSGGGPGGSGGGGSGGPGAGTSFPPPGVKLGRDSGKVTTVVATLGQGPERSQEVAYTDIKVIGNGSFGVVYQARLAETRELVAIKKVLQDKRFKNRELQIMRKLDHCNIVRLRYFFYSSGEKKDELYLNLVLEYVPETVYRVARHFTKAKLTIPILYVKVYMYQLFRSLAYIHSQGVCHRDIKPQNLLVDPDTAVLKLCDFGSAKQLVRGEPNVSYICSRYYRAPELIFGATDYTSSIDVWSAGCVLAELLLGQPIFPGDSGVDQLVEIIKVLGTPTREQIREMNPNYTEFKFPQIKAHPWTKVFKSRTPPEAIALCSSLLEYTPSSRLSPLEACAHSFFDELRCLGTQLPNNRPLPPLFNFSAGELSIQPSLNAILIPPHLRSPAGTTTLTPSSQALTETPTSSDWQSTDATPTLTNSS
GSK3β, sequence (P49841 whole entry, species assumed): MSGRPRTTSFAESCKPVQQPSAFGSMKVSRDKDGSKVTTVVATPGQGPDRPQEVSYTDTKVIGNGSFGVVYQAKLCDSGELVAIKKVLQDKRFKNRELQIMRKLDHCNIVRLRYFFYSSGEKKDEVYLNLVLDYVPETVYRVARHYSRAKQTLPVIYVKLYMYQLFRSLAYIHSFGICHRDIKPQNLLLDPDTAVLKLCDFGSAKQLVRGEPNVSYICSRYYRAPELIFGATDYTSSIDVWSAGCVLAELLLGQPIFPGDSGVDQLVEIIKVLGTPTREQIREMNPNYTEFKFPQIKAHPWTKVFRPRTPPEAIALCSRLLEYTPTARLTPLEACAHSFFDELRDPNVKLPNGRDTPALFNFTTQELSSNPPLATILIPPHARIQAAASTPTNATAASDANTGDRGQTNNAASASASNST

| Compound | ring closure, yield after HPLC [1] | IC50 [2] | IC50 [3] | IC50 [4] | ring closure, isolated yield [5] |
| --- | --- | --- | --- | --- | --- |
| CC1(O)CC=CCN2CCN(CC2)c2cc(F)ncc2NC(=O)c2ccnc(n2)NC1 (centres unmarked) | 37% | – | – | – | – |
| O=C1Nc2cnc(F)cc2N2CCN(CC=CCCC(O)CNc3nccc1n3)CC2 (single isomer, unassigned) [Example 28, (E)-2^6-fluoro-8-hydroxy-3,6-diaza-5(4,2)-pyrimidina-1(1,4)-piperazina-2(4,3)-pyridinacyclotridecaphan-11-en-4-one] | – | 1870 nM | 17.5 nM | 14.7 nM | 22% and 13% |
